Measurements as given in article PMC13197777, “Distinct 2-phenylimidazo[1,2-a]pyridine derivatives that inhibit breast cancer cell proliferation identified as AHR ligands” (iScience, 2026).
pIC50: −log10 of the molar value. Where two headings read alike, the source gives them in different places.

Columns and labels:
ERα full-length = target: T1, ERα full-length (Homo sapiens, UniProt P03372); assay: PolarScreen ERα Competitor Assay (fluorescence polarization); assay type: binding
T1 construct: 34 nM ERα full-length and 1.4 nM Fluormone EL Red were incubated; purchased ThermoFisher A15884
T1 sequence (P03372 1-595): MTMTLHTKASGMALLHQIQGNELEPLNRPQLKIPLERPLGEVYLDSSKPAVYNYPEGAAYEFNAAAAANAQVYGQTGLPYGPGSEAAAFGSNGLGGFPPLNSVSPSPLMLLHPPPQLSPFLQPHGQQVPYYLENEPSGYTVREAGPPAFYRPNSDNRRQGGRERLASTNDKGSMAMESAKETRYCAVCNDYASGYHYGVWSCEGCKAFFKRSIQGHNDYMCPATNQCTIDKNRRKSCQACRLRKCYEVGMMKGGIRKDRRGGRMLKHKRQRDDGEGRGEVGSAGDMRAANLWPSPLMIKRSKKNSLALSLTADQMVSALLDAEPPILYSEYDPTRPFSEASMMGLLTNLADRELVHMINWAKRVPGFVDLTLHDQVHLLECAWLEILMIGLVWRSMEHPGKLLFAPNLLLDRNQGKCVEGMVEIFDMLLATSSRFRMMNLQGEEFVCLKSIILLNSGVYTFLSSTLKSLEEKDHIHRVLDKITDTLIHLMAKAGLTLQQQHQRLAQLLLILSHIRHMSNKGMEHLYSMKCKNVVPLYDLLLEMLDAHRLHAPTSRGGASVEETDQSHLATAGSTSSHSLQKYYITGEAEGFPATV
Experimental: The PolarScreen Estrogen Receptor-Alpha Competitor Assay, Red (ThermoFisher, A15884) was used to determine if the X compounds bind to ERα. The assay was performed according to the manufacturer’s protocol.

MCF-7 luc Y537S = assay: Clonogenic assay (clonal expansion), MCF-7 cells with Y537S ER mutation; assay type: cell-based; details: Homo sapiens, MCF7, 336 h
Experimental: Cells were seeded at a density of 1–2×10^3 cells/well in a 6-well plate and treated with increasing concentrations of the X compounds for 14–21 days. Medium and compounds were renewed every 7 days. The experiments were terminated by fixing the cells with methanol and the colonies formed were visualized after staining with 0.5% crystal violet (w/v) in 20% methanol (v/v). Plates were photographed and the area covered by the colonies was calculated using the ColonyArea Plugin for Fiji (RRID:SCR_003070).[20]

ERα in MCF-7 cells = assay: Immunoblot of ERα in MCF-7 cells; assay type: cell-based, human; details: MCF-7, 48 h, increasing concentrations up to 1 μM
Experimental: To determine the relative expression of proteins by Western blotting, cells were first washed with ice-cold phosphate buffered saline (PBS). Subsequently, they were lysed in ice-cold NP40 lysis buffer (1%NP-40, 50 mM Tris-HCl, pH 8.0, 150 mM NaCl, 5 mM Ethylenediaminetetraacetic acid [EDTA], 1 mM PMSF) on ice. DNA was degraded by sonification (five pulses at 50 amplitudes). Protein concentration was determined, and equal amounts of protein were separated on a 9% SDS-PAGE gel. The proteins were transferred onto nitrocellulose membrane by a standard Western blotting protocol and the membranes were incubated with the following antibodies: ERα (Santa Cruz Biotechnology, sc-8002, RRID: AB_627558) and PCNA (Santa Cruz Biotechnology, sc-56, RRID: AB_628110), followed by incubation with HRP labeled Goat anti-mouse Immunoglobulins (DAKO, P0447, RRID: AB_2617137).

CTC-ITB-01 cells = assay: cells; assay type: cell-based; details: for CC50: Homo sapiens, read-out: LC50
Experimental: LC50 values were measured using the CyQUANT NF Cell Proliferation Assay Kit (Thermo Fisher). CTC-ITB-01 cells were plated at a density of 2x10^3 cells/well in 96-well plates and treated the following day with serial dilutions of the test compounds. After incubation for the indicated time, cells were stained with CyQUANT dye according to the manufacturer’s protocol and incubated at 37°C for 30 min. Fluorescence was measured using a Tecan Infinite M Nano+ (excitation: 485 nm; emission: 530 nm). For the calculation of the LC50 the fluorescence was plotted against the Log10 of the inhibitor concentration in nM as x values and the LC50 values were calculated with 95% confidence intervals (n = 4).

hERα = target: T2, hERα (Homo sapiens, UniProt P03372); assay: ER/ERE luciferase reporter assay in HELN hERα cells; assay type: cell-based; details: 10 nM–10 μM compound, with E2, 24 h
T2 construct: expressed in transfected cells; host or cells: HeLa (HELN hERα)
T2 sequence (P03372 1-595): T1 sequence (P03372 1-595)
Excerpt: To characterize the chemical induced AHR activity, we used the already established HAHLH reporter cell lines obtained by stably expression of HeLa cells with the dioxin-responsive gene XRE(TnGCGTG)3-tata-luciferase-Luc-hygromycin plasmid.[29] The reporter HELN hERα cell line was obtained by transfecting human HeLa cells with the ERE-responsive gene ERE-βGlobin-luciferase-Luc-neomycin and the pSG5-hERα-puromycin plasmids as previously described.[59] To determine the action of the chemical on AHR and hERα activity, cells were seeded at a density of 50,000 cells per well in 96-well white opaque tissue culture plates (Greiner CellStar) in 150 μL of Dulbecco’s Modified Eagle Medium: Nutrient Mixture F-12 (DMEM/F- 12) without phenol red and 1 g/L glucose and supplemented with 5% stripped fetal bovine serum, 100 units/mL of penicillin, 100 μg/mL of streptomycin (test medium). Twenty-four hours later, chemicals to be tested were added at 4x concentration in culture medium, and cells were incubated at 37 °C for 8 h (HAhLH cells) or 24 h (HELN hERα cells). At the end of the incubation period, culture medium was replaced with test medium containing 0.3 mM luciferin and luciferase activity was measured for 2 s in intact living cells using a MicroBeta Wallac luminometer (PerkinElmer). Tests were performed in quadruplicate at 4x concentration in the same medium in at least 4 independent experiments. Results were expressed as % of the maximal luciferase activity. […] Effective concentration (ECs) for a given compound, EC50 is defined as the concentration inducing 50% of its maximal effect. The EC50 values were calculated including the adjustment for the basal activity of the cell line.

[1] = test system: AHR target genes CYP1A1, CYP1B1, ALDH3A1; details: human, 16 h, 1 µM

| Compound | displacement of the Fluormone tracer from ERα (ERα full-length) | pIC50 (MCF-7 luc Y537S; read-out: IC50 clonal expansion, Figure 1B, MCF-7 luc Y537S, absence of E2, 14 days) | pIC50 (MCF-7 luc Y537S; read-out: IC50 clonal expansion, Figure 1C, MCF-7 luc Y537S + 10 nM E2, 14 days) | pIC50 (MCF-7 luc Y537S; read-out: IC50 clonal expansion, Figure 1D, MCF-7 luc Y537S, absence of E2, 14 days) | pIC50 (MCF-7 luc Y537S; read-out: IC50 clonal expansion, Figure 1E, MCF-7 luc Y537S + 10 nM E2, 14 days) | ERα destabilization (immunoblot) (ERα in MCF-7 cells) | LC50 fold lower compared to fulvestrant (CTC-ITB-01 cells; CTC-ITB-01, 48 h and 120 h) [fold] | CC50 (CTC-ITB-01 cells; 48 h) [nM] | CC50 (CTC-ITB-01 cells; 120 h) [nM] | transcription activity of ERα (reporter) (hERα) | expression of AHR target genes (RT-PCR) [1] |
| --- | --- | --- | --- | --- | --- | --- | --- | --- | --- | --- | --- |
| Fc1ccc(-c2cn3cc(C(F)(F)F)cc(Cl)c3n2)cc1 [X15695] | did not | 8.11 | 8.19 | 8.11 | 8.19 | most proficient in destabilizing ERα | 20 | 400 | 300 | reduced | enhanced the transcriptional activity of the AHR target genes in both MCF-7 and T47D cells |
| Cc1cc(Cl)c2nc(-c3ccc(F)cc3)cn2c1 [X19724] | did not | – | – | – | – | most proficient in destabilizing ERα | – | – | – | reduced | – |
| Cc1cc(Cl)c2nc(-c3ccccc3)cn2c1 [X19728] | did not | – | – | – | – | no significant ERα destabilization | – | – | – | reduced | – |
